# Tests used:
# Type in all cases: in vivo
# [1] = Liver lipids in Swiss mice fed with a western diet; conditions: 100 mg/kg/day, western diet 6 weeks, fasted 48 h
# Description: Total lipids and triglycerides in the liver of animals were assessed according to a procedure partially reported by (Letteron P., Fromenty B., Terris B., Degott C., Pessayre D., 1996, J. Hepatol. 24 : 200-208). Briefly, after killing of the animals, livers were removed and homogenized in sterile water. Hepatic lipids were thus extracted by a mixture of chloroform and methanol (2/1; v/v). After removal of the aqueous phase, the organic phase (chloroform containing the lipids) was evaporated and the amount of lipids was determined by gravimetry. Lipids were subsequently resuspended in isopropanol (final concentration, ca. 10 mg/mL). After removal of the phopholipids by using aluminum hydroxide hydrate, triglycerides were determined colorimetrically by using periodate and the Nash's reagent (containing acetylacetone, ammonium acetate and isopropanol). The reaction generates diacetyldihydrolutidine which is assayed by spectrophotometry (λ=410 nm).
# Liver lipids were assessed in mice fed with the western diet (WD) receiving or not of 100 mg/kg/day of β-aminoisobutyric acid (BAIBA) in the drinking water (8 mice in each group). For comparison, the experiment also included a group of mice (n=8) fed with a standard diet (SD). These animals were those used for the determination of body fat by DEXA (see above, paragraph I-c) but after the last DEXA measurement (i.e. after 6 weeks of treatment), mice were allowed to recover from the anaesthesia for ca. 2 days and were then submitted to a 48-hour period of fast. At the end of this fasting period DEXA was again performed (see above) and then mice were killed for liver lipids determination. The western diet was responsible for an increase in liver lipids as compared to mice fed with the standard diet.
# [2] = Liver histology in ob/ob mice, first series (48-hr fast); conditions: standard diet
# Description: Plasma HDL-cholesterol and alanine aminotransferase (ALT) were measured on an automatic analyser (Olympus AU400®) with commercial kits (Olympus Diagnostica GmbH, references OSR6187 and OSR6107, respectively).
# Finally, liver histology was performed according to regular procedure. Steatosis and fibrosis were assessed thanks to the Oil red O and Masson's trichrome stains, respectively, whereas necrosis and inflammation were determined thanks to the HPS (Hematoxylin-Phloxin-Saffron) stain, or the HE (Hematoxylin-Eosin) stain. In one experiment, perisinusoidal fibrosis was assessed with the Sirius Red stain.
# Liver histology was first examined in ob/ob mice fed with standard diet receiving (11 mice) or not (10 mice) β-aminoisobutyric acid in the drinking water. In this experiment, mice were submitted to a 48-hr period of fast before killing and liver examination.
# [3] = Plasma glucose and insulin in obese ob/ob mice (10 to 12-weeks old), 6 weeks
# Description: Plasma glucose was measured on an automatic analyser (Synchron LX20 from Beckman Coulter) with a commercial kit (kit n°472500 from Beckman).
# Plasma insulin, adiponectin and leptin were measured by radioimmunoassay (RIA). Insulin was measured with the Insulin-CT kit from Cis Bio International (Gif-sur-Yvette, France), whereas plasma leptin and adiponectin were assessed with kits from Linco Research Inc. (St Charles, Mo.). Leptin was not measured in ob/ob mice since these animals are genetically leptin-deficient (Friedman J. M., Halaas J. L., 1998, Nature 395: 763-770). Results regarding insulin were expressed as recommended by kit manufacturer.
# In obese ob/ob mice (10 to 12-weeks old) treated with 100 mg/kg/d of β-aminoisobutyric acid for 6 weeks and fasted for the last 48 hours, there was a trend toward lower plasma levels of glucose and insulin. Indeed, plasma glucose was 11.1±1.4 and 9.0±0.9 mmol/L, respectively in control ob/ob mice (n=6) and mice treated with β-aminoisobutyric acid (n=8). Plasma insulin was 37±19 and 24±6 μU/ml, respectively in control mice (n=4) and mice treated with β-aminoisobutyric acid (n=5). […] Indeed, insulin was 83±13 and 64±7 μU/ml, respectively in control mice (n=5) and mice treated with β-aminoisobutyric acid (n=5).
# [4] = 100 mg/kg/d 6 weeks, ob/ob 10 to 12-weeks old, fasted 48 hours
# [5] = obese mice, standard diet, 6 weeks
compound,measurement,setting,value
"CC(CN)C(=O)O (racemic) [BAIBA, D,L-β-Aminoisobutyric acid]",hepatic triglycerides,[1],33±6 mg/whole liver
same,liver lipids,[1],108±7 mg/whole liver
same,decrease of liver total lipids,[1]; vs Controls-WD,24%
same,decrease of liver triglycerides,[1]; vs Controls-WD,17%
same,animals with inflammation,[2],63%
same,animals with necrosis,[2],63%
same,animals with perisinusoidal fibrosis,[2],45%
same,plasma alanine aminotransferase,[2],not decreased
same,mice with between 90 and 100% of fat-laden hepatocytes,[2]; 11 treated mice,27%
same,plasma glucose,[3]; [4],9.0 ± 0.9 mmol/L
same,plasma insulin,[3]; [4],24±6 μU/ml
same,plasma insulin,"[3]; 100 mg/kg/d 6 weeks, ob/ob 10 to 12-weeks old, fed state",64±7 μU/ml
same,decrease of the glucose plasma level,[3]; [5],around 20%
same,decrease of the insulin plasma level,[3]; [5],around 35%
